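Assay format: 96-well plates, 48-hour exposure. GI50 marks 50% less growth.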 Active and inactive are the calls of the source. No stated cut-off is given here; in the data, active = GI50 up to about 1.1 µM and inactive = higher.
What was measured:
Assay in all cases: NCI tumour cell line growth inhibition, 48 h
786-0 = system: 786-0
A498 = system: A498
A549 = system: A549
ACHN = system: ACHN
CAKI-1 = system: CAKI-1
CCRF-CEM = system: CCRF-CEM
COLO 205 = system: COLO 205
DLD-1 = system: DLD-1
DMS-114 = system: DMS-114
DMS-273 = system: DMS-273
EKVX = system: EKVX
HCC 2998 = system: HCC 2998
HCT-116 = system: HCT-116
HCT-15 = system: HCT-15
HL-60 = system: HL-60
HOP-18 = system: HOP-18
HOP-62 = system: HOP-62
HOP-92 = system: HOP-92
HT-29 = system: HT-29
IGROV-1 = system: IGROV-1
K562 = system: K562
KM-20L2 = system: KM-20L2
KM12 = system: KM12
LOX IMVI = system: LOX IMVI
LXFL 529 = system: LXFL 529
M14 = system: M14
M19-MEL = system: M19-MEL
MOLT-4 = system: MOLT-4
Malme-3M = system: Malme-3M
NCI-H23 = system: NCI-H23
NCI-H460 = system: NCI-H460
OVCAR-3 = system: OVCAR-3
OVCAR-4 = system: OVCAR-4
OVCAR-5 = system: OVCAR-5
OVCAR-8 = system: OVCAR-8
RPMI-8226 = system: RPMI-8226
RXF 393 = system: RXF 393
SF-268 = system: SF-268
SF-295 = system: SF-295
SF-539 = system: SF-539
SK-MEL-2 = system: SK-MEL-2
SK-MEL-5 = system: SK-MEL-5
SK-OV-3 = system: SK-OV-3
SN12C = system: SN12C
SNB-19 = system: SNB-19
SNB-75 = system: SNB-75
SNB-78 = system: SNB-78
SW-620 = system: SW-620
TK-10 = system: TK-10
U-251 = system: U-251
UACC-257 = system: UACC-257
UACC-62 = system: UACC-62
UO-31 = system: UO-31
XF498 = system: XF498

Measured: GI50

CCCCCCCCCCCCCC(=O)OC1C(CO)OC(=O)C1O (centres undefined)
inactive: 786-0 > 100 µM | A498 > 100 µM | A549 > 100 µM | ACHN > 100 µM | CAKI-1 > 100 µM | CCRF-CEM 89.9 µM | COLO 205 > 100 µM | DLD-1 > 100 µM | DMS-114 > 100 µM | DMS-273 > 100 µM | EKVX > 100 µM | HCC 2998 > 100 µM | HCT-116 > 100 µM | HL-60 34.3 µM | HOP-18 > 100 µM | HOP-62 > 100 µM | HOP-92 26.7 µM | HT-29 > 100 µM | IGROV-1 > 100 µM | K562 34.7 µM | KM-20L2 > 100 µM | KM12 > 100 µM | LOX IMVI > 100 µM | LXFL 529 > 100 µM | M14 > 100 µM | M19-MEL > 100 µM | MOLT-4 > 100 µM | Malme-3M > 100 µM | NCI-H23 > 100 µM | NCI-H460 > 100 µM | OVCAR-3 > 100 µM | OVCAR-4 > 100 µM | OVCAR-5 > 100 µM | OVCAR-8 > 100 µM | RPMI-8226 > 100 µM | RXF 393 > 100 µM | SF-268 > 100 µM | SF-295 58.3 µM | SF-539 > 100 µM | SK-MEL-2 > 100 µM | SK-MEL-5 > 100 µM | SK-OV-3 > 100 µM | SN12C > 100 µM | SNB-19 71.4 µM | SNB-75 > 100 µM | SNB-78 > 100 µM | SW-620 > 100 µM | TK-10 > 100 µM | U-251 82.8 µM | UACC-257 > 100 µM | UACC-62 > 100 µM | UO-31 51.8 µM | XF498 > 100 µM
> 100 µM: HCT-15

From ChEMBL document CHEMBL1201862, “PubChem BioAssay data set” (2004)
